{"source": "patent US20240245712A1", "about": "“METHODS AND MATERIALS FOR IDENTIFYING AND TREATING MEMBRANOUS NEPHROPATHY” (Mayo Foundation for Medical Education and Research, priority 2023, published 2024)", "system": "syphilis-associated membranous nephropathy (nephrotic syndrome)", "assay": "Follow-up of syphilis-associated NDNF-positive membranous nephropathy patients treated with antibiotics", "type": "in vivo, human", "description": "Biopsies for diagnosis were evaluated. The diagnosis of MN was confirmed by light microscopy (LM), immunofluorescence (IF) microscopy including PLA2R studies, and electron microscopy (EM). The clinical information was obtained from the accompanying charts. For detection of novel proteins, MS/MS was performed in 250 cases of PLA2R-negative cases (discovery cohort) that included cases used for identification of EXT1/EXT2, NELL1, SEMA3B, PCDH7, and FAT1 (Sethi et al., J. Am. Soc. Nephrol., 30:1123-1136 (2019); Sethi et al., Kid. Int., 97:163-174 (2020); Sethi et al., Kid. Int., 98:1253-1265 (2020); Sethi et al., J. Am. Soc. Nephrol., 32:1249-1261 (2021); and Sethi et al., J. Am. Soc. Nephrol., 33:1033-1044 (2022)). A NDNF polypeptide was detected in 3 cases of PLA2R-negative MN (NDNF-associated MN) by MS/MS. All 3 cases were negative for spectral counts for THSD7A, EXT1/EXT2, NELL1, SEMA3B, HTRA1, CNTN1, NCAM1, PCDH7, and FAT1 while baseline spectral counts for PLA2R were present in 2 of the 3 cases.\nUsing MS/MS, 14 cases of hepatitis B-associated MN and 5 cases of syphilis-associated MN were screened for MN antigens (validation cohort). Tissue from 4 cases (cases 4-7) of syphilis-associated MN were obtained from Cedars Sinai Medical Center and one case (cases 8-9) from Mayo Clinic. Cases 8 and 9 were from the same patient who was biopsied twice, 3 months apart. […]", "data": [{"substance": "penicillin", "values": [{"measurement": "Repeat kidney biopsy finding after treatment", "setting": "Case 8, repeat biopsy 3 months later, after complete remission", "value": "continued to show membranous nephropathy"}, {"measurement": "Outcome of the nephrotic syndrome after antibiotic treatment", "setting": "patients with syphilis and NDNF-associated MN, follow-up available in 4 of the 6 cases of syphilis", "value": "complete remission"}]}]}
